According to ChEMBL document CHEMBL1201862, “PubChem BioAssay data set” (2004):
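Values below derive from 48-hour exposures of cells grown in 96-well plates, with endpoints linearly interpolated between the two concentrations bracketing the appropriate inhibition level. At the GI50, growth is halved.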 The source made the active and inactive calls. Cut-off read from the data, not from the text of the source: active = GI50 up to about 1.1 µM and inactive = higher.

Columns and labels:
Test in all cases: inhibition of tumour cell growth, NCI panel, 48 h
SK-MEL-2 = test system: SK-MEL-2
SF-539 = test system: SF-539
Hs-578T = test system: Hs-578T
MOLT-4 = test system: MOLT-4
COLO 205 = test system: COLO 205
HL-60 = test system: HL-60
MDA-MB-435 = test system: MDA-MB-435
SK-OV-3 = test system: SK-OV-3
NCI-H522 = test system: NCI-H522
HCT-116 = test system: HCT-116
TK-10 = test system: TK-10
CAKI-1 = test system: CAKI-1
SF-295 = test system: SF-295
SNB-19 = test system: SNB-19
K562 = test system: K562
HCC 2998 = test system: HCC 2998
OVCAR-4 = test system: OVCAR-4
SNB-75 = test system: SNB-75

SMILES	GI50 (SK-MEL-2)	GI50 (SF-539)	GI50 (Hs-578T)	GI50 (MOLT-4)	GI50 (COLO 205)	GI50 (HL-60)	GI50 (MDA-MB-435)	GI50 (SK-OV-3)	GI50 (NCI-H522)	GI50 (HCT-116)	GI50 (TK-10)	GI50 (CAKI-1)	GI50 (SF-295)	GI50 (SNB-19)	GI50 (K562)	GI50 (HCC 2998)	GI50 (OVCAR-4)	GI50 (SNB-75)
N#C/C=C(/NC(=O)Nc1ccccc1)N1CCCC1	> 32.9 µM (inactive)	> 47.4 µM (inactive)	> 86.1 µM (inactive)	> 100 µM (inactive)	> 55 µM (inactive)	> 100 µM (inactive)	> 68.9 µM (inactive)	> 100 µM (inactive)	> 47.4 µM (inactive)	> 34.8 µM (inactive)	> 36.2 µM (inactive)	> 45.9 µM (inactive)	> 31.5 µM (inactive)	> 25.2 µM (inactive)	> 59.4 µM (inactive)	> 30.3 µM (inactive)	34.6 µM (inactive)	–
CCOC(=O)n1c(=O)nc2c3c(ncn21)Oc1c(c(-c2ccccc2)nn1-c1ccccc1)C3c1ccc(Cl)cc1 (stereo unspecified)	1.84 µM (inactive)	1.56 µM (inactive)	1.66 µM (inactive)	–	1.32 µM (inactive)	1.26 µM (inactive)	1.67 µM (inactive)	2.86 µM (inactive)	1.73 µM (inactive)	1.5 µM (inactive)	1.7 µM (inactive)	1.61 µM (inactive)	1.86 µM (inactive)	1.61 µM (inactive)	1.08 µM (active)	0.631 µM (active)	1.15 µM (inactive)	1.91 µM (inactive)
C/C=C/[C@@H]1O[C@H](CC#C[Si](C)(C)C)[C@@]2(C=O)C(C)=CC[C@H](C(C)C)[C@@H]12	16.5 µM (inactive)	21.6 µM (inactive)	33.3 µM (inactive)	1.93 µM (inactive)	21.5 µM (inactive)	3.81 µM (inactive)	20 µM (inactive)	80.4 µM (inactive)	2.09 µM (inactive)	18.2 µM (inactive)	15 µM (inactive)	1.94 µM (inactive)	21.9 µM (inactive)	23.8 µM (inactive)	14.7 µM (inactive)	18.2 µM (inactive)	19.3 µM (inactive)	21.6 µM (inactive)
CCC(NC(C)c1ccccc1)C(=O)c1ccc(OCc2ccccc2)c(OCc2ccccc2)c1 (stereo unspecified)	–	> 100 µM (inactive)	> 100 µM (inactive)	–	> 100 µM (inactive)	> 100 µM (inactive)	> 100 µM (inactive)	> 100 µM (inactive)	> 100 µM (inactive)	> 100 µM (inactive)	> 100 µM (inactive)	> 100 µM (inactive)	> 100 µM (inactive)	> 100 µM (inactive)	4.81 µM (inactive)	> 100 µM (inactive)	> 100 µM (inactive)	> 100 µM (inactive)
O=C1c2ccccc2NC(c2cc(Cl)cc(Cl)c2O)N1CCc1ccccn1 (stereo unspecified)	> 100 µM (inactive)	> 100 µM (inactive)	55.8 µM (inactive)	–	> 100 µM (inactive)	> 100 µM (inactive)	68.1 µM (inactive)	> 100 µM (inactive)	41.9 µM (inactive)	67 µM (inactive)	> 100 µM (inactive)	> 100 µM (inactive)	> 100 µM (inactive)	88.9 µM (inactive)	> 100 µM (inactive)	53.2 µM (inactive)	36.8 µM (inactive)	42.6 µM (inactive)
Cc1nc2ccc(Cl)cc2c2c1CCS2	57.9 µM (inactive)	87.5 µM (inactive)	28.6 µM (inactive)	19.5 µM (inactive)	48.9 µM (inactive)	27.2 µM (inactive)	68.5 µM (inactive)	> 100 µM (inactive)	> 100 µM (inactive)	41.1 µM (inactive)	69.2 µM (inactive)	55.2 µM (inactive)	> 100 µM (inactive)	> 100 µM (inactive)	40.9 µM (inactive)	77.4 µM (inactive)	26.8 µM (inactive)	–
Cn1cnc(C(N)=[Se])c1N	2.27 µM (inactive)	2.02 µM (inactive)	3.74 µM (inactive)	–	2.09 µM (inactive)	–	5.26 µM (inactive)	1.25 µM (inactive)	2.19 µM (inactive)	3.69 µM (inactive)	2.64 µM (inactive)	3.27 µM (inactive)	0.244 µM (active)	1.29 µM (inactive)	–	15.4 µM (inactive)	–	2.2 µM (inactive)
CCN(CC)C(=S)N/N=C(/c1ccccc1)c1ccccn1	0.711 µM (active)	0.343 µM (active)	> 37.6 µM (inactive)	< 0.0507 µM (active)	0.0275 µM (active)	0.264 µM (active)	0.705 µM (active)	0.673 µM (active)	0.0984 µM (active)	0.0454 µM (active)	0.439 µM (active)	0.805 µM (active)	0.342 µM (active)	2.84 µM (inactive)	0.185 µM (active)	2.15 µM (inactive)	0.504 µM (active)	0.875 µM (active)
CCOC1CCN(C(=O)c2ccccc2)O1 (stereo unspecified)	> 10 µM (inactive)	> 10 µM (inactive)	> 10 µM (inactive)	> 10 µM (inactive)	> 10 µM (inactive)	> 10 µM (inactive)	> 10 µM (inactive)	> 10 µM (inactive)	> 10 µM (inactive)	> 10 µM (inactive)	> 10 µM (inactive)	> 10 µM (inactive)	> 10 µM (inactive)	> 10 µM (inactive)	> 10 µM (inactive)	> 10 µM (inactive)	> 10 µM (inactive)	> 10 µM (inactive)
O=C1CSC(c2ccccc2O)N1c1ccc(-n2c(-c3ccccc3)nc3ccccc3c2=O)cc1 (stereo unspecified)	24.3 µM (inactive)	16.6 µM (inactive)	23.4 µM (inactive)	13.2 µM (inactive)	30.3 µM (inactive)	21.6 µM (inactive)	24.4 µM (inactive)	23.7 µM (inactive)	19.9 µM (inactive)	11 µM (inactive)	48.2 µM (inactive)	29.2 µM (inactive)	16.4 µM (inactive)	27.3 µM (inactive)	15.2 µM (inactive)	28.5 µM (inactive)	30.4 µM (inactive)	54.1 µM (inactive)
Cc1cccc2c(NCCCN(C)C)c3c([N+](=O)[O-])ccc(C)c3nc12	0.132 µM (active)	0.263 µM (active)	0.439 µM (active)	0.0178 µM (active)	0.0802 µM (active)	0.203 µM (active)	0.191 µM (active)	0.278 µM (active)	< 0.0326 µM (active)	0.1 µM (active)	0.252 µM (active)	0.2 µM (active)	0.0689 µM (active)	0.192 µM (active)	0.115 µM (active)	< 0.0255 µM (active)	0.0628 µM (active)	0.186 µM (active)
COc1ccc(C(SC2C(O)C(CO)OC2n2ccc(=O)[nH]c2=O)(c2ccccc2)c2ccc(OC)cc2)cc1 (stereo unspecified)	15.1 µM (inactive)	22 µM (inactive)	20.9 µM (inactive)	26.9 µM (inactive)	17.7 µM (inactive)	25.6 µM (inactive)	9.1 µM (inactive)	13.7 µM (inactive)	14.7 µM (inactive)	14.7 µM (inactive)	25.4 µM (inactive)	30.4 µM (inactive)	7.57 µM (inactive)	12.4 µM (inactive)	31.6 µM (inactive)	14.8 µM (inactive)	19.7 µM (inactive)	18.5 µM (inactive)
NC1=C(Cl)C(=O)c2c(O)ccc(O)c2C1=O	4.72 µM (inactive)	2.84 µM (inactive)	8.3 µM (inactive)	6.98 µM (inactive)	1.69 µM (inactive)	2.55 µM (inactive)	2.01 µM (inactive)	20.9 µM (inactive)	14.6 µM (inactive)	2.47 µM (inactive)	15.2 µM (inactive)	16.5 µM (inactive)	2.1 µM (inactive)	3.89 µM (inactive)	22.4 µM (inactive)	2.84 µM (inactive)	4.11 µM (inactive)	5.41 µM (inactive)
CCOC1CN(C)/C(=N\c2cccc3ccccc23)S1 (stereo unspecified)	–	> 10 µM (inactive)	> 10 µM (inactive)	> 10 µM (inactive)	> 10 µM (inactive)	–	> 10 µM (inactive)	> 10 µM (inactive)	> 10 µM (inactive)	> 10 µM (inactive)	> 10 µM (inactive)	> 10 µM (inactive)	> 10 µM (inactive)	> 10 µM (inactive)	> 10 µM (inactive)	> 10 µM (inactive)	> 10 µM (inactive)	> 10 µM (inactive)
COC(=O)CC1C2CC3C(C2=O)C13 (stereo unspecified)	> 100 µM (inactive)	> 100 µM (inactive)	> 100 µM (inactive)	> 100 µM (inactive)	> 100 µM (inactive)	33.6 µM (inactive)	> 100 µM (inactive)	> 100 µM (inactive)	> 100 µM (inactive)	> 100 µM (inactive)	> 100 µM (inactive)	> 100 µM (inactive)	> 100 µM (inactive)	> 100 µM (inactive)	> 100 µM (inactive)	> 100 µM (inactive)	> 100 µM (inactive)	58.1 µM (inactive)
O=C(CSc1nc2ccccc2c(=O)n1-c1ccccc1)N/N=C1\C(=O)Nc2ccc(Br)cc21	9.53 µM (inactive)	2.1 µM (inactive)	7.05 µM (inactive)	3.33 µM (inactive)	3.74 µM (inactive)	3.21 µM (inactive)	5.71 µM (inactive)	3.41 µM (inactive)	3.4 µM (inactive)	2.26 µM (inactive)	2.39 µM (inactive)	2.48 µM (inactive)	2.81 µM (inactive)	3.03 µM (inactive)	3.2 µM (inactive)	8.17 µM (inactive)	2.58 µM (inactive)	3.01 µM (inactive)
